The values below come from patent publication US20240301408A1, “MICRORNA 195 COMPOSITIONS AND METHODS FOR TREATING COGNITIVE IMPAIRMENT” (UNITED STATES GOVERNMENT AS REPRESENTED BY THE DEPARTMENT …, priority 2021, published 2024).

The test system of one data set is Aβ / amyloid plaque. Kind of data set: brain oligomer Aβ42, soluble Aβ and amyloid plaque burden in EFAD mice after miR-195-5p over-expression. Format: in vivo, mouse. The protocol:
(§1) Stereotaxic injection and behavior studies. Eight to nine weeks old male and female ApoE3^+/+ and ApoE4^+/+ KI mice without 5×FAD background (N=19-23/group), or with 5×FAD background (N=15-17/group) were placed in the stereotaxic apparatus with AAV2 or scramble virus administered into the dorsal CA1 regions of bilateral hippocampal brain regions using pressure injection (Labonte B et al., Nat Med 2017, and Passini M A et al., The Journal of neuroscience 2006). Injection volumes (0.5-2.0 μl) were delivered over 10 min to avoid tissue damage. Six to nine months after viral delivery, mice were tested with the NOR task (Zhu L et al., Proc Natl Acad Sci USA 2015, Elder G A et al., J Neurotrauma 2012, and Howlett D R et al., Brain Res 2004). Mice were randomized for genotype and sex, and blinded throughout the behavior data collection and analysis, surgical manipulations, and sample collection.
Brain and neuronal sample preparation and biochemical analysis. Snap-frozen mouse hemi-brains or cultured neurons were harvested in lysis buffer (Lane R F et al., The Journal of neuroscience 2010) and processed via step-wise solubilization (Lane R F et al., The Journal of neuroscience 2010, and Kawarabayashi T et al. The Journal of neuroscience 2001) followed by SDS-PAGE to determine levels of synj1, dyn1, holoAPP, and CTFs. Levels of Aβ42, Aβ40, pTau, Tau and ApoE were determined using high-sensitive ELISA kits. Some tissue was used for miRNA and RNA extraction followed by qPCR and RNA-seq analysis. […]
(§2) Statistical analysis. […] Levels of miR-195-5p and miR-374 were normalized to U6 and RNU6B (internal controls) while synj1 mRNA normalized to GAPDH and 18s, and then expressed as Log2fold of changes when compared to controls. Levels of synj1, dyn1, pTau, Tau, and holoAPP were normalized to β-actin levels and expressed as a percentage of the control. Absolute Aβ42, Aβ40, pTau, Tau, and ApoE concentrations were quantitatively determined by ELISA and expressed as a percentage of the control. […] Pearson correlation coefficients were calculated to determine the linear relationship between the two variables. […]

Data set [1] concerns ApoE4+/+ or ApoE3+/+ knock-in (KI) mice. Kind of data set: novel object recognition (NOR) after hippocampal AAV2 injection, ApoE KI mice. Format: in vivo, mouse.
Text: Animal models. Human ApoE4^+/+ or ApoE3^+/+ knock-in (KI) mouse models without (Grootendorst J et al., Behavioural brain research 2005, Rodriguez G A et al., Learn Mem 2013, and Wang C et al., Neurobiology of disease 2005) or with 5×FAD background (Balu D et al., Neurosci Lett 2019, and Tai L M et al., J Lipid Res 2017) were genotyped (Zhong L et al., Mol Neurodegener 2016). Sex as a biological variable was taken into considerations with inclusion of both male and female mice in the experiments.
as §1

Another data set has as its system phospho-Tau (pTau). Kind of data set: brain pTau levels in ApoE KI mice after miR-195 over-expression. Format: in vivo, mouse. The protocol:
Stereotaxic injection and behavior studies. Eight to nine weeks old male and female ApoE3^+/+ and ApoE4^+/+ KI mice without 5×FAD background (N=19-23/group), or with 5×FAD background (N=15-17/group) were placed in the stereotaxic apparatus with AAV2 or scramble virus administered into the dorsal CA1 regions of bilateral hippocampal brain regions using pressure injection (Labonte B et al., Nat Med 2017, and Passini M A et al., The Journal of neuroscience 2006). Injection volumes (0.5-2.0 μl) were delivered over 10 min to avoid tissue damage. […]
Brain and neuronal sample preparation and biochemical analysis. […] Levels of Aβ42, Aβ40, pTau, Tau and ApoE were determined using high-sensitive ELISA kits. […]
as §2

In data set [2] the test system is lysosomes of ApoE4+/+ astrocytes. Kind of data set: lysosome size (Lysotracker, confocal) in iPSC-derived astrocytes. Format: cell-based, human. The note with it: control 36.5 μm^2. On the procedure: Mouse Neuronal and human iPSC culture. Primary cortical neurons were cultured (Zhu L et al., Proc Natl Acad Sci USA 2015, and Zhu L et al., J Biol Chem 2013) before being fixed and stained for confocal microscopy analysis (Zeiss LSM) (Berg I et al., Nat Protoc 2010). In some conditions, bovine serum albumin (BSA) or receptor-associated protein (RAP) was included in the cultured media (N=3/group). Alternatively, cultured neurons were transfected with adeno-associated virus 2 (AAV2)-containing miR-195-5p or miR-374 or scramble controls for 5 days before subjected to analysis. The ApoE4^+/+ and ApoE3^+/+ iPSCs were differentiated into neural progenitor cells (NPCs) by dual SMAD inhibition followed by neural rosette selection and forebrain-specific patterning by 20 ng/ml FGF2 exposure (Bowles K R et al., PloS one 2019, and Tcw J et al., Stem cell reports 2017). These NPCs were purified by MACS for CD271^−/CD133^+ (Bowles K R et al., PloS one 2019) and differentiated to cortical neurons (Bardy C et al., Proc Natl Acad Sci USA 2015, and Paquet D et al., Nature 2016) and a homogeneous population of astrocytes (Tcw J et al., Stem cell reports 2017, and Shaltouki A et al., Stem Cells 2013) before subjected to viral transfection and confocal microscopy analysis. […]

Where [3] appears, read: ApoE4+/+ and ApoE3+/+ FAD mouse brains.

For “UAGCAGCACAGAAAUAUUGGC (chemistry not given here) [miR-195-5p, over-expressed via AAV2-containing miR-195-5p from ABM Inc]”, in the data set with Aβ / amyloid plaque (setting [3]), the “amyloid plaque burden (plaque numbers and plaque density)” value was “dramatic reduction”; the “brain oligomer Aβ42 measured by ELISA” value is on record as “dramatic reduction”. Moreover, in the data set on Aβ / amyloid plaque (E4FAD and E3FAD mouse brains), the “soluble Aβ40, Aβ42 levels” value is given as “no significant changes”. Also, in data set [1] (ApoE3+/+ KI mice), the “NOR, scramble versus miR-195-5p over-expressing animals” value is listed as “no statistically significant differences”. This sequence showed an NOR preference index in data set [1] (ApoE4+/+ KI mice, viral delivery to bilateral hippocampi, scramble controls 42.9%) of 61.5%. Moreover, the NOR discrimination index in data set [1] (ApoE4+/+ KI mice, scramble controls −0.144) is 0.231. For the same sequence, the pTau levels entry in the data set with phospho-Tau (pTau) (ApoE3+/+ mice) is “Trends of reduction”. In addition, the “brain phospho-Tau (pTau) levels” value with phospho-Tau (pTau) (ApoE4+/+ KI mouse hippocampus, scramble controls 81.3) is listed as 39.1 % of controls. Moreover, the “average size of lysosomes (area)” value in data set [2] is recorded as “no significant differences”.
